Measurements taken from the NIST ThermoML archive (doi:10.1021/acs.jced.7b00995).

Experiments:
[1] = 313.15 K, Liquid, Vibrating tube method
[2] = xn = mol fraction of the nth substance listed; details: Liquid, Vibrating tube method

CCCCCCCCCCCCCCC [pentadecane]
[1]
Details | mass density [kg/m3]
100 kPa | 752.2
6910 kPa | 757.8
20790 kPa | 766.9
34670 kPa | 776.1
55490 kPa | 787.5
76930 kPa | 797.3

CCCCCCCCCCCCCCC [pentadecane] + O=C=O
mass density [kg/m3], [2]
Details | x2 = 0.376 | x2 = 0.562 | x2 = 0.757
313.15 K, 6.36 kPa | – | 779.4 | –
313.15 K, 6.91 kPa | 770 | – | –
313.15 K, 8.8 kPa | – | – | 798.3
313.15 K, 11.29 kPa | – | – | 804.2
313.15 K, 13.85 kPa | – | – | 810.2
313.15 K, 20.79 kPa | 784 | 796.8 | 828.1
313.15 K, 34.67 kPa | 795.8 | 808.8 | 843.2
313.15 K, 55.49 kPa | 809 | 829 | 867.8
313.15 K, 76.31 kPa | 825.4 | 841.5 | 885.9
363.15 K, 6.94 kPa | 725.3 | – | –
363.15 K, 10.73 kPa | – | 730.3 | –
363.15 K, 17.13 kPa | – | – | 738.8
363.15 K, 20.82 kPa | 744.5 | 745.5 | 749.2
363.15 K, 34.7 kPa | 754.3 | 768.8 | 780
363.15 K, 55.52 kPa | 775.6 | 784.7 | 812.3
363.15 K, 76.34 kPa | 787 | 800.8 | 831.7
410.15 K, 13.9 kPa | – | 686.5 | –
410.15 K, 13.91 kPa | 693.8 | – | –
410.15 K, 20.85 kPa | 702.6 | 701.8 | –
410.15 K, 21.95 kPa | – | – | 682.7
410.15 K, 27.79 kPa | – | – | 702
410.15 K, 34.73 kPa | 723.3 | 724.9 | 723.5
410.15 K, 55.55 kPa | 742.3 | 749.5 | 763.8
410.15 K, 76.37 kPa | 757.3 | 769.3 | 796.1
